Experimental findings from ChEMBL document CHEMBL1201862, “PubChem BioAssay data set” (2004) are described below.

Among the test systems are SK-MEL-28; CCRF-CEM; MOLT-4; Hs-578T; MDA-MB-231; SNB-19; OVCAR-8; HCT-116; NCI-H460; A498; HOP-92; OVCAR-5; HCT-15; SNB-75; HCC 2998; PC-3; MDA-MB-435; OVCAR-4; T47D.
Holding throughout (assay): NCI tumour cell line growth inhibition, 48 h

Molecules are shown by their SMILES.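 48-hour exposure; five concentrations; linearly interpolated endpoints. GI50: concentration for 50% inhibition of growth.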 The source made the active and inactive calls. Rule as the data show it: active = GI50 up to about 1.1 µM and inactive = higher. Some results are limits rather than exact numbers.

In the case of `CN(CC(=O)N1CC(CCl)c2ccc([N+](=O)[O-])cc21)CC(=O)N1CC(CCl)c2ccc([N+](=O)[O-])cc21` (configuration not stated), the GI50 with SK-MEL-28, with CCRF-CEM, with MOLT-4, in the experiment with Hs-578T, in the experiment with MDA-MB-231 and with SNB-19 was > 100 µM (inactive) in each case. Also, the GI50 in the experiment on OVCAR-8, in the experiment with HCT-116, with NCI-H460, in the experiment on A498, with HOP-92 and in the experiment with OVCAR-5 was > 100 µM (inactive) in each case. The GI50 was above 100 µM in the experiment on HCT-15; > 100 µM (inactive) with SNB-75; > 100 µM (inactive) in the experiment with HCC 2998; > 100 µM (inactive) in the experiment with PC-3; 83.9 µM (inactive) in the experiment on MDA-MB-435.

Regarding `C1CSCC2(COC2)CS1`, the GI50 in the experiment with SK-MEL-28, in the experiment with OVCAR-4, in the experiment with CCRF-CEM, with MOLT-4, with Hs-578T and in the experiment with SNB-19 was > 100 µM (inactive) throughout. The GI50 in the experiment on OVCAR-8, in the experiment with HCT-116, with NCI-H460, in the experiment on A498, in the experiment on HOP-92 and in the experiment on SNB-75 was > 100 µM (inactive) in each case. Further, the GI50 in the experiment with HCC 2998, in the experiment on PC-3 and in the experiment with MDA-MB-435 was > 100 µM (inactive) throughout.

As for `CCOC(=O)c1c(-c2ccccc2)c(-c2ccccc2)cn1C`, the GI50 with OVCAR-4 is > 10 µM (inactive); with CCRF-CEM, > 10 µM (inactive); with MOLT-4, > 10 µM (inactive); in the experiment on Hs-578T, 4.92 µM (inactive); in the experiment on SNB-19, > 10 µM (inactive); in the experiment with OVCAR-8 it was > 10 µM (inactive). Further, the GI50 was > 10 µM (inactive) with NCI-H460; > 10 µM (inactive) in the experiment on HOP-92; > 10 µM (inactive) in the experiment with OVCAR-5; above 10 µM in the experiment on HCT-15; > 10 µM (inactive) in the experiment on SNB-75; > 10 µM (inactive) with HCC 2998. Also, the GI50 in the experiment on MDA-MB-435 was > 10 µM (inactive).

Regarding `CN1CN(c2ccccc2)C2(CCN(CCCCCCF)CC2)C1=O`, the GI50 was > 100 µM (inactive) with SK-MEL-28; 29.9 µM (inactive) in the experiment with T47D; 37.9 µM (inactive) in the experiment on CCRF-CEM; 48.9 µM (inactive) in the experiment with MOLT-4; 81.1 µM (inactive) in the experiment with MDA-MB-231; 71.1 µM (inactive) with SNB-19. Besides, the GI50 with OVCAR-8 was > 100 µM (inactive); with HCT-116 it was 28.8 µM (inactive); in the experiment with OVCAR-5 it was 35 µM (inactive); in the experiment with HCT-15, 54.5 µM; in the experiment on SNB-75, > 100 µM (inactive); in the experiment on PC-3, > 100 µM (inactive). Also, the GI50 in the experiment with MDA-MB-435 is > 100 µM (inactive).

With `CC(=O)NC1C(OCc2ccccc2)OC(CO)C(O)C1OCC(=O)NC(C)C(=O)NC(CCC(=O)NCCCCCNc1c2ccccc2nc2cccc([N+](=O)[O-])c12)C(N)=O` (configuration not stated), the GI50 is < 0.0001 µM (active) in the experiment with SK-MEL-28; 0.00074 µM (active) in the experiment with OVCAR-4; 0.000861 µM (active) in the experiment on CCRF-CEM; < 0.0001 µM (active) in the experiment on MOLT-4; < 0.01 µM (active) in the experiment on Hs-578T; < 0.0001 µM (active) with MDA-MB-231. In addition, the GI50 with SNB-19, in the experiment on OVCAR-8, in the experiment on HCT-116, in the experiment with NCI-H460, in the experiment on A498 and with HOP-92 was < 0.0001 µM (active) in each case. Moreover, the GI50 with OVCAR-5 was < 0.0001 µM (active); in the experiment with HCT-15, below 0.0001 µM; in the experiment with SNB-75, < 0.0001 µM (active); in the experiment on HCC 2998, < 0.0001 µM (active); in the experiment on PC-3 it was < 0.0001 µM (active); with MDA-MB-435 it was < 0.0001 µM (active).

As for `CCOC(=O)NC(C(F)(F)F)(C(F)(F)F)P(=O)(OC(C)C)OC(C)C`, the GI50 in the experiment with SK-MEL-28, with OVCAR-4, in the experiment with CCRF-CEM, in the experiment with MOLT-4, in the experiment on Hs-578T and with MDA-MB-231 was > 100 µM (inactive) each time. For the same molecule, the GI50 was > 100 µM (inactive) with SNB-19; > 100 µM (inactive) in the experiment on OVCAR-8; > 100 µM (inactive) in the experiment with HCT-116; > 100 µM (inactive) with NCI-H460; > 100 µM (inactive) in the experiment on OVCAR-5; above 100 µM in the experiment with HCT-15. For the same molecule, the GI50 in the experiment with SNB-75, in the experiment on HCC 2998, with PC-3 and with MDA-MB-435 was > 100 µM (inactive) in each case.

As to `CN(C)CCC(/C=C/c1ccccc1)=N\Nc1c(F)c(F)c(F)c(F)c1F`, the GI50 is > 100 µM (inactive) with SK-MEL-28; > 100 µM (inactive) with OVCAR-4; 55.6 µM (inactive) in the experiment with CCRF-CEM; 45.1 µM (inactive) in the experiment with MOLT-4; > 100 µM (inactive) in the experiment on SNB-19; 53.8 µM (inactive) in the experiment with OVCAR-8. The GI50 is > 100 µM (inactive) with HCT-116; 27.7 µM (inactive) with NCI-H460; 62.2 µM (inactive) in the experiment with A498; > 100 µM (inactive) in the experiment with OVCAR-5; 56.8 µM with HCT-15; 9.82 µM (inactive) in the experiment on SNB-75.

For the molecule `CCC1(O)CC(CCN(Cc2ccccc2)C(=O)OCc2ccccc2)C(OCc2ccccc2)C1O` (configuration not stated), the GI50 in the experiment on SK-MEL-28 was 15.7 µM (inactive); in the experiment on T47D, 12.2 µM (inactive); in the experiment with OVCAR-4, 7.66 µM (inactive); with CCRF-CEM, 16.1 µM (inactive); in the experiment on MOLT-4, 1.93 µM (inactive); with MDA-MB-231 it was 27.2 µM (inactive). The GI50 in the experiment on SNB-19 was 15.6 µM (inactive); in the experiment on OVCAR-8 it was 15.6 µM (inactive); with HCT-116, 17.5 µM (inactive); with NCI-H460, 13.4 µM (inactive); in the experiment on OVCAR-5, 17.7 µM (inactive); in the experiment on HCT-15 it was 13.4 µM. Also, the GI50 was 12.5 µM (inactive) in the experiment on SNB-75, 14 µM (inactive) in the experiment on HCC 2998, 10.7 µM (inactive) with PC-3 and 18.4 µM (inactive) with MDA-MB-435.

Turning to `Nc1c(C(=O)c2ccccc2)nnc2ccccc12`, the GI50 was 43.9 µM (inactive) in the experiment with SK-MEL-28; 29.8 µM (inactive) in the experiment with OVCAR-4; 36.1 µM (inactive) in the experiment with MOLT-4; 18.2 µM (inactive) with MDA-MB-231; 37.9 µM (inactive) in the experiment with SNB-19; 33.7 µM (inactive) in the experiment on OVCAR-8. In addition, the GI50 in the experiment with HCT-116 is 24.6 µM (inactive); in the experiment on NCI-H460, 24 µM (inactive); in the experiment with HOP-92, 18.8 µM (inactive); in the experiment on OVCAR-5, 36.5 µM (inactive); in the experiment on HCT-15, 30.1 µM; in the experiment with HCC 2998, 23.4 µM (inactive). Moreover, the GI50 in the experiment on PC-3 was 24.8 µM (inactive); with MDA-MB-435, 21.9 µM (inactive).

Turning to `CS(=O)(=O)c1nc(-c2cc3c(c(S(C)(=O)=O)n2)CCC3)cc2c1CCCCC2`, the GI50 with SK-MEL-28 was > 100 µM (inactive); in the experiment with OVCAR-4, > 100 µM (inactive); in the experiment on CCRF-CEM, > 100 µM (inactive); in the experiment on MOLT-4 it was > 100 µM (inactive); in the experiment on Hs-578T, 9.08 µM (inactive); in the experiment with MDA-MB-231, 54.7 µM (inactive). The GI50 with SNB-19 was 34.4 µM (inactive); with OVCAR-8, 66.5 µM (inactive); with HCT-116, > 100 µM (inactive); with OVCAR-5, > 100 µM (inactive); in the experiment on HCT-15, above 100 µM; in the experiment on SNB-75, 6.37 µM (inactive). For the same molecule, the GI50 in the experiment on HCC 2998, with PC-3 and with MDA-MB-435 was > 100 µM (inactive) each time.

With `Cc1cc(N(CCC#N)CCC#N)ccc1/N=N/c1cccc(C(=O)O)c1`, the GI50 with SK-MEL-28 was 97.7 µM (inactive); in the experiment on OVCAR-4, > 100 µM (inactive); in the experiment on CCRF-CEM, > 100 µM (inactive); with MOLT-4, > 100 µM (inactive); with OVCAR-8 it was > 100 µM (inactive); with A498, > 100 µM (inactive). Also, the GI50 in the experiment with OVCAR-5 is > 100 µM (inactive); with HCT-15, above 100 µM; with SNB-75, 34.1 µM (inactive); in the experiment with HCC 2998, > 100 µM (inactive).

Regarding `C=C1C(O)CC[C@]2(C)C1C1OC(C)(C)O[C@]13CC(=O)C(C)=C([C@H]1OC(C)(C)OC12)C3(C)C` (some centres not stated), the GI50 with SK-MEL-28 was > 100 µM (inactive); in the experiment on T47D it was 47.9 µM (inactive); in the experiment with OVCAR-4 it was 96.4 µM (inactive); with CCRF-CEM it was > 100 µM (inactive); in the experiment with MOLT-4, 58.6 µM (inactive); with MDA-MB-231 it was > 100 µM (inactive). The GI50 with SNB-19 was > 100 µM (inactive); in the experiment on OVCAR-8 it was > 100 µM (inactive); with HCT-116 it was > 100 µM (inactive); in the experiment with NCI-H460, > 100 µM (inactive); in the experiment on A498, 23.1 µM (inactive); in the experiment on OVCAR-5, > 100 µM (inactive). In addition, the GI50 is above 100 µM in the experiment on HCT-15, > 100 µM (inactive) in the experiment with SNB-75, > 100 µM (inactive) in the experiment on HCC 2998 and > 100 µM (inactive) in the experiment with MDA-MB-435.

For `O=C1/C(=C/c2cccc([N+](=O)[O-])c2)CCCc2ccccc21`, the GI50 in the experiment on SK-MEL-28 is 15.3 µM (inactive); with OVCAR-4, 13.7 µM (inactive); with CCRF-CEM it was 2.93 µM (inactive); with MOLT-4, 4.95 µM (inactive); with Hs-578T, 3.94 µM (inactive); in the experiment with MDA-MB-231, 17 µM (inactive). For the same molecule, the GI50 is 15.2 µM (inactive) with SNB-19; 12.7 µM (inactive) with OVCAR-8; 5.4 µM (inactive) in the experiment on HCT-116; 18.5 µM (inactive) in the experiment on NCI-H460; 14.4 µM (inactive) in the experiment with HOP-92; 13.3 µM (inactive) in the experiment on OVCAR-5. For the same molecule, the GI50 in the experiment with HCT-15 was 10.6 µM; with SNB-75, 15.1 µM (inactive); in the experiment with HCC 2998, 10.3 µM (inactive); with PC-3, 11 µM (inactive); with MDA-MB-435, 9.66 µM (inactive).
